Laboratory results: ChEMBL document CHEMBL3045691, “Evaluation of rat kidney aldose reductase inhibitory activity of some N-acetyl dehydroalanine derivatives” (Med Chem Res, 2011)

Molecular target: Aldo-keto reductase family 1 member B1 (Rattus norvegicus) (UniProt P07943)
Assay: Inhibition of Rattus norvegicus albino (rat) kidney aldose reductase using D-L-glyceraldehyde as substrate assessed as decrease in NADPH concentration at 3.3 x 10^-6 M after 5 min by spectrophotometric analysis

C=C(NC(C)=O)C(=O)NCc1ccccc1Cl
inhibition: 7.26%

C=C(NC(C)=O)C(=O)N1CCCC1
inhibition: 0%

C=C(NC(C)=O)C(=O)NCc1ccc(Cl)cc1
inhibition: 2.3%

C=C(NC(C)=O)C(=O)NCCC(C)C
inhibition: 4.13%

C=C(NC(C)=O)C(=O)Nc1nnc(CC)s1
inhibition: 4.5%

C=C(NC(C)=O)C(=O)NCc1ccccc1OC
inhibition: 0%

C=C(NC(C)=O)C(=O)NCCCCl
inhibition: 19.6%

C=C(NC(C)=O)C(=O)NC(C)CC (stereo not given)
inhibition: 0%

C=C(NC(C)=O)C(=O)NCC
inhibition: 13.1%

C=C(NC(C)=O)C(=O)NC
inhibition: 9.46%

C=C(NC(C)=O)C(=O)NC(C)C
inhibition: 3.77%

C=C(NC(C)=O)C(=O)NCCC
inhibition: 4.32%

C=C(NC(C)=O)C(=O)NCc1ccccc1
inhibition: 2.48%

C=C(NC(C)=O)C(=O)N1CCCCC1
inhibition: 3.4%

C=C(NC(C)=O)C(=O)NC(C)(C)CC
inhibition: 3.22%
